{"source": "ChEMBL document CHEMBL5034037", "about": "“Synthesis, Characterization, and Preclinical Evaluation of a Small-Molecule Prostate-Specific Membrane Antigen-Targeted Monomethyl Auristatin E Conjugate” (J Med Chem, 2021)", "key": {"[1]": {"test": "Chronic toxicity in rabbit assessed as decrease in the blood lymphocyte count at […], iv administered once every 3 weeks for 3 months", "format": "organism-based, Oryctolagus cuniculus", "conditions": "in vivo, 504 h, dose lower 81 mg/kg"}, "[2]": {"test": "Toxicity in rabbit assessed as morphological changes in abdominal cavity at 81 to 122 microg/kg, iv", "design": "species or system Oryctolagus cuniculus", "conditions": "in vivo, dose 81-122 µg/kg"}, "[3]": {"test": "Stability of the compound in mouse liver microsome", "format": "ADME", "conditions": "microsomes"}, "[4]": {"test": "Toxicity in rabbit assessed as morphological changes in urinary bladder at 81 to 122 microg/kg, iv", "design": "species or system Oryctolagus cuniculus", "conditions": "in vivo, dose 81-122 µg/kg"}, "Cytochrome P450 1A2": {"biological_target": "T1, Cytochrome P450 1A2 (Homo sapiens, UniProt P05177)", "T1 sequence (P05177 whole entry)": "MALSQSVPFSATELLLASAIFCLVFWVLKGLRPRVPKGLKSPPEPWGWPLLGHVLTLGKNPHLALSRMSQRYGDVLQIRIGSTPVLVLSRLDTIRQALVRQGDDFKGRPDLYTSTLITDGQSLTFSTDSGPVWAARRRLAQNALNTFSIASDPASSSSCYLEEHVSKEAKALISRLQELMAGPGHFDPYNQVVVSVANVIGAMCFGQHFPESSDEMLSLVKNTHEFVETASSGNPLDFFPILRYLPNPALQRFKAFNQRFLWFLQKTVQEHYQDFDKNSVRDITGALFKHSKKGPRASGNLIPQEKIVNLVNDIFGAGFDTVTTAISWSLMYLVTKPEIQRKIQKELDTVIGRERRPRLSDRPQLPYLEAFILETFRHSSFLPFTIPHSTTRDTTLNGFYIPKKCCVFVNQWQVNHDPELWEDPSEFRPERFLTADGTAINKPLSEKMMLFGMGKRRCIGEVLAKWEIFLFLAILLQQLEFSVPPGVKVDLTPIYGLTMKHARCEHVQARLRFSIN", "test": "Drug metabolism assessed as human liver microsome CYP1A2-mediatd metabolism", "format": "ADME", "conditions": "microsomes"}, "[5]": {"test": "Toxicity in rat assessed as morphological changes in testes at 150 to 225 microg/kg, iv", "conditions": "in vivo, dose 150-225 µg/kg"}, "[6]": {"test": "AUC (0 to t) in Wistar rat at 1.5 mg/kg, iv", "format": "ADME, organism-based", "design": "dose 1.5 mg/kg", "conditions": "in vivo"}, "[7]": {"test": "Toxicity in rat assessed as morphological changes in heart valve at 150 to 225 microg/kg, iv", "format": "tissue-based", "conditions": "in vivo, dose 150-225 µg/kg"}, "[8]": {"test": "Toxicity in rat assessed as morphological changes in adrenal gland at 150 to 225 microg/kg, iv", "format": "tissue-based", "conditions": "in vivo, dose 150-225 µg/kg"}, "Cathepsin B": {"biological_target": "Cathepsin B (Homo sapiens, UniProt P07858)", "test": "Stability of compound at pH 3.6 assessed as recombinant cathepsin B (unknown origin) mediated hydrolysis half life by HPLC-MS analysis", "format": "ADME"}}, "note": "*1 amine or outer side, *2 acyl side, *3 side chain or, on linkers, in order; H or OH if unused. Where a SMILES comes first, the peptide text is derived from it. [ ]: non-standard residue; d: D form. The star is where a group is joined. GluureaLys(ε-3-ClBenzyl) = O=C(O)CC[C@H](NC(=O)N[C@@H](CCCCN(Cc1cccc(Cl)c1)*)C(=O)O)C(=O)O; Dolaproine = CO[C@@H]([C@@H]1CCCN1)[C@@H](C)C(=O)O; Dil = CC[C@H](C)[C@H](NC)[C@@H](CC(=O)O)OC; X1 = O=C(CCCc1cn(CCCN[*:1])nn1)[*:2]; PABC = O=C(OCc1ccc(N[*:1])cc1)[*:2]; X2 = C[C@@H](N*)[C@@H](O)c1ccccc1; Cit = NC(=O)NCCC[C@H](N)C(=O)O; Suc = O=C(CCC(=O)[*:2])[*:1]; NMeV = CN[C@H](C(=O)O)C(C)C; Ahx = NCCCCCC(=O)O"}
{"smiles": "CC[C@H](C)[C@@H]([C@@H](CC(=O)N1CCC[C@H]1[C@H](OC)[C@@H](C)C(=O)N[C@H](C)[C@@H](O)c1ccccc1)OC)N(C)C(=O)[C@@H](NC(=O)[C@H](C(C)C)N(C)C(=O)OCc1ccc(NC(=O)[C@H](CCCNC(N)=O)NC(=O)[C@@H](NC(=O)CCCc2cn(CCCNC(=O)[C@H](Cc3ccc(O)cc3)NC(=O)[C@H](Cc3ccccc3)NC(=O)CCC(=O)NCCCCCC(=O)N(CCCC[C@H](NC(=O)N[C@@H](CCC(=O)O)C(=O)O)C(=O)O)Cc3cccc(Cl)c3)nn2)C(C)C)cc1)C(C)C", "note": "({GluureaLys(ε-3-ClBenzyl)-Ahx-Suc}-FY[X1]V[Cit][PABC][NMeV]V[Dil][Dolaproine]-X2)", "values": [{"measurement": "Activity", "setting": "[1]", "result": "Toxic"}, {"measurement": "Activity", "setting": "[2]", "result": "Non-Toxic"}, {"measurement": "Stability", "setting": "[3]", "result": "Unstable"}, {"measurement": "Activity", "setting": "[4]", "result": "Non-Toxic"}, {"measurement": "Drug metabolism", "setting": "Cytochrome P450 1A2", "result": "Metabolite_Notdetected"}, {"measurement": "Activity", "setting": "[5]", "result": "Non-Toxic"}, {"measurement": "AUC(0-t)", "setting": "[6]", "result": 76000, "unit": "ng·h/mL"}, {"measurement": "Activity", "setting": "[7]", "result": "Non-Toxic"}, {"measurement": "Activity", "setting": "[8]", "result": "Non-Toxic"}, {"measurement": "half-life", "setting": "Cathepsin B", "result": 25, "unit": "min"}]}
